Measurements taken from article PMC2957699, “Iodothyronine Interactions with the System L1 Amino Acid Exchanger in 3T3-L1 Adipocytes” (Journal of Thyroid Research, 2010).

How the values were obtained:
Type in all cases: cell-based
[1] = target: T1, LAT1 (System L1 catalytic subunit) (Mus musculus, UniProt Q9Z127); assay: inhibition of […] [3H]phenylalanine uptake at […]; conditions: read-out: % inhibition at 10 mM
T1 construct: gene Slc7a5; endogenous System L1 in 3T3-L1 adipocytes; with SLC3A2 (4F2hc/CD98)

[2] = target: T1, LAT1 (System L1 catalytic subunit); assay: saturable [3H]phenylalanine uptake (Km) in 3T3-L1 cells
[3] = target: T1, LAT1 (System L1 catalytic subunit); assay: trans stimulation of [3H]phenylalanine efflux; inhibition of phenylalanine and T3 uptake
[4] = target: T1, LAT1 (System L1 catalytic subunit); assay: inhibition of [3H]phenylalanine uptake ([…] at […]) and of leucine trans stimulated efflux; conditions: read-out: % inhibition at 10 μM

T1 sequence (Q9Z127 whole entry): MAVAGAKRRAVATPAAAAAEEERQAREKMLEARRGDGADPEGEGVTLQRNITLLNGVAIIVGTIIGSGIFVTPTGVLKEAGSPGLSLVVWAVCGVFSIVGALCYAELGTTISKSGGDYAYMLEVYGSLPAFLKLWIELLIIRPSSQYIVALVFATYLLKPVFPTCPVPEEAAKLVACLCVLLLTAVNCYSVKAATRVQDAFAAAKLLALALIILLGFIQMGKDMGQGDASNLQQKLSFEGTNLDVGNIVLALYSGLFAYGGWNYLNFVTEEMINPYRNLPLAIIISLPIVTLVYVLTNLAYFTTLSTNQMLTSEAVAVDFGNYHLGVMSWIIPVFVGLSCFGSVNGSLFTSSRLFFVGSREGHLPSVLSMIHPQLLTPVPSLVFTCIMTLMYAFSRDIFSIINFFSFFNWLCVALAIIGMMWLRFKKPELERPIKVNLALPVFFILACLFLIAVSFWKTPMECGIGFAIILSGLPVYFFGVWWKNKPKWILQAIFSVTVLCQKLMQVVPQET
T1 sequence (P10852 whole entry partner): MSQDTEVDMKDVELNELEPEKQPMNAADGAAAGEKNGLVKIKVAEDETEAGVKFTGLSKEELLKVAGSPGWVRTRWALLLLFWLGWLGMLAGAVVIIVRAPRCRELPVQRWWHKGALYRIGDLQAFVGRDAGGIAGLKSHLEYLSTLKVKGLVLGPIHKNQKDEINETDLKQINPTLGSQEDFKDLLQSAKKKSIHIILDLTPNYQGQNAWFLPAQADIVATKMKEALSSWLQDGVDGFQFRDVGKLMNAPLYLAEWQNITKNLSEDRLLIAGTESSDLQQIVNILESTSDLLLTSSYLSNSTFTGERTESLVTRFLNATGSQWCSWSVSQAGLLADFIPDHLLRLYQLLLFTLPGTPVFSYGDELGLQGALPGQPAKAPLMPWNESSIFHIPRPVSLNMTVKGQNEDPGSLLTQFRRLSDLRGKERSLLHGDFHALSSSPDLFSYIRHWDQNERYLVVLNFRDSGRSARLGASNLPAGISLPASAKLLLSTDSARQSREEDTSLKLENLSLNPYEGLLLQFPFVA

NC1(C(=O)O)CC2CCC1C2 (stereo not shown) [BCH, 2-aminobicyclo-(2,2,1)-heptane-2-carboxylic acid]
inhibition at 10000 µM [1]: > 95%

N[C@@H](Cc1ccccc1)C(=O)O [L-phenylalanine]
Km [2]: 31 µM

CC(C)C[C@H](N)C(=O)O [leucine]
trans stimulation of [3H]phenylalanine efflux; inhibition of phenylalanine and T [3]: Efflux of pre-loaded L-[^3H]phenylalanine from 3T3-L1 adipocytes was trans stimulated in a concentration-dependent manner by external leucine

N[C@@H](Cc1ccc(Oc2cc(I)c(O)c(I)c2)c(I)c1)C(=O)O [rT3, Reverse L-triiodothyronine]
inhibition at 10 µM [4]: 57%
